# According to PMC10683761 (ACS Sensors, 2023):
# What was measured:
# Type in all cases: cell-based, human
# dMASS^1 [1] = experiment: dMASS^1 response to 1 μM DA in presence of dopamine receptor subtype antagonists
# dMASS^1 [2] = settings: 10 μM compound, sensor dMASS^1, mean ± SEM, N = 40 cells
# dLight1.1 = settings: 10 μM compound, sensor dLight1.1, mean ± SEM, N = 40 cells
Structure (SMILES),effect on DA-dependent response of dMASS^1 (dMASS^1 [1]),response normalized to 10 μM DA stimulation (dMASS^1 [2]),response normalized to 10 μM DA stimulation (dLight1.1)
CCN1CCCC1CNC(=O)c1cc(S(N)(=O)=O)ccc1OC (centres unmarked) [Sulpiride],but not dMASS^1,–,–
CN1CCc2cc(Cl)c(O)cc2[C@@H](c2ccccc2)C1 [SCH23390],–,3.58 ± 0.16%,8.87 ± 0.58%
"NCCc1c[nH]c2ccc(O)cc12 [5-HT, 5-hydroxytryptamine]",–,3.32 ± 0.20%,6.61 ± 0.69%
"NC[C@H](O)c1ccc(O)c(O)c1 [NE, norepinephrine]",–,58.00 ± 3.46%,55.06 ± 4.31%
"CC(C)NCC(O)c1ccc(O)c(O)c1 (centres unmarked) [Iso, isoproterenol]",–,3.80 ± 0.21%,8.89 ± 0.83%
"CC(=O)OCC[N+](C)(C)C [ACh, acetylcholine]",–,3.61 ± 0.14%,8.22 ± 0.58%
